Common to all, as to assay type: cell-based
The subject of series [1] is E. coli ATCC 25922. The series is described as follows: Minimum inhibitory concentration by broth microdilution, E. coli. The note with it: 5×10^4 cells, incubated overnight. Here is the method:
(§1) Minimum inhibitory concentrations of several of the peptides were measured against E. coli ATCC 25922, Pseudomonas aeruginosa ATCC 27853, and Staphylococcus aureus ATCC 25723. Minimum inhibitory concentrations were obtained by the broth microdilution method. Peptide solutions were prepared over a range of concentrations from 2 μg/mL to 256 μg/mL. 5×10^4 cells were added to the peptide solutions in sterile wells and incubated overnight. Wells in which the organisms grew became turbid. The minimum inhibitory concentration was the lowest concentration that inhibited growth of the organism.
(§2) P. aeruginosa and E. coli are Gram-negative bacteria, while S. aureus is a Gram-positive bacterium. 3T3 cells are healthy Swiss mouse fibroblast cells, and 3T12 cells are transformed, immortalized mouse fibroblast cells. Thus the novel peptides (at the proper concentrations) have activity against both Gram-negative and Gram-positive bacteria, while not showing activity against mammalian cells. This combination of properties is itself rather unusual in a lytic peptide.
(In general: Dilution methods test growth across graded concentrations, often in twofold steps.)

Series [2] concerns Pseudomonas aeruginosa ATCC 27853. The series is described as follows: Minimum inhibitory concentration by broth microdilution, P. aeruginosa. The note with it: 5×10^4 cells, incubated overnight. As to the method:
as §1, §2

For series [3], the system named is Staphylococcus aureus ATCC 25723. Nature of the series: Minimum inhibitory concentration by broth microdilution, S. aureus. The note with it: 5×10^4 cells, incubated overnight. Here is the method: as §1, §2
In series [4] the test system is murine cell line 3T3. The series is described as follows: Sublethal concentration, Tryptan blue staining, 3T3 cells. The note with it: healthy Swiss mouse fibroblast cells, thirty minutes at 37° C., highest concentration with at least one nucleus not stained. As to the method:
(§3) Also shown in Table 1 are sublethal concentrations for some of the peptides against the murine cell lines 3T3 and 3T12. Dilutions of peptide were prepared over a range of concentrations. Equal volumes of peptide solution and 250-750 murine cells were mixed together. The cells were incubated for thirty minutes at 37° C. 50 μL of Tryptan blue stain were then added to each well. Under light microscopy, killed cells could be visualized by the fact that their nuclei were stained. The sublethal dose was the highest concentration for which at least one cell nucleus was not stained. (Blank entries in Table 1 correspond to assays that had not been completed as of the date this application is being filed. Values for those entries will be determined in future assays performed in the same manner.)
as §2

Series [5] has as its system murine cell line 3T12. The series is described as follows: Sublethal concentration, Tryptan blue staining, 3T12 cells. The settings on record: transformed, immortalized mouse fibroblast cells, thirty minutes at 37° C., highest concentration with at least one nucleus not stained. As to the method: as §3, §2
The subject of series [6] is mammalian cell. The series is described as follows: Mammalian cell permeation to an exterior fluorescent dye. The note with it: ratio to antibacterial concentration.

Where a SMILES comes first, the peptide text is derived from it. A value given as a limit tells only on which side of the number the result lay.

`CC[C@H](C)[C@H](NC(=O)CN)C(=O)NCC(=O)N[C@@H](C)C(=O)N[C@H](C(=O)N[C@@H](CC(C)C)C(=O)N[C@@H](CCCCN)C(=O)N[C@H](C(=O)N[C@@H](CC(C)C)C(=O)N[C@H](C(=O)N[C@H](C(=O)NCC(=O)N[C@@H](CC(C)C)C(=O)N1CCC[C@H]1C(=O)N[C@@H](C)C(=O)N[C@@H](CC(C)C)C(=O)N[C@H](C(=O)N[C@@H](CO)C(=O)N[C@@H](Cc1c[nH]c2ccccc12)C(=O)N[C@H](C(=O)N[C@@H](CCCCN)C(=O)N[C@@H](CCCNC(=N)N)C(=O)N[C@@H](CCCCN)C(=O)N[C@@H](CCCNC(=N)N)C(=O)N[C@@H](CCC(N)=O)C(=O)N[C@@H](CCC(N)=O)C(N)=O)[C@@H](C)CC)[C@@H](C)CC)[C@@H](C)O)[C@@H](C)O)C(C)C)C(C)C` [melittin, reference compound]: the “Minimum Inhibitory Concentration, E. coli” value in series [1] worked out at 0.56 µM. Besides, the “Minimum Inhibitory Concentration, P. aeruginosa” value in series [2] worked out at 2.3 µM. Further, the “Minimum Inhibitory Concentration, S. aureus” value in series [3] was found to be 0.56 µM. For the same molecule, the “Sublethal Concentration, 3T3” value in series [4] was determined as 0.78 µM. Besides, in series [5], the “Sublethal Concentration, 3T12” value worked out at 0.78 µM.

With “magainin 2 (KLGKKLGKLGKKLGKLGKKLG) [naturally occurring lytic peptide used for comparison, reference compound]”, the “Minimum Inhibitory Concentration, E. coli” value in series [1] was found to be 1.3 µM. Also, the “Minimum Inhibitory Concentration, P. aeruginosa” value in series [2] was determined as 0.65 µM. Moreover, the “Minimum Inhibitory Concentration, S. aureus” value in series [3] was determined as 1.3 µM.

As to (KLAKLAK)2 (KLAKLAKKLAKLAK), in series [1], the “Minimum Inhibitory Concentration, E. coli” value worked out at 5.8 µM. For the same molecule, the “Minimum Inhibitory Concentration, P. aeruginosa” value in series [2] was 5.8 µM. Further, the “Minimum Inhibitory Concentration, S. aureus” value in series [3] came to 5.8 µM.

Take (KLAKKLA)3 (KLAKKLAKLAKKLAKLAKKLA): the “Minimum Inhibitory Concentration, E. coli” value in series [1] was found to be 4.2 µM. For the same molecule, the “Minimum Inhibitory Concentration, P. aeruginosa” value in series [2] came out at 4.2 µM. Also, the “Minimum Inhibitory Concentration, S. aureus” value in series [3] is 4.2 µM. Further, in series [4], the “Sublethal Concentration, 3T3” value worked out at 9 µM. Further, the “Sublethal Concentration, 3T12” value in series [5] is 17 µM.

Consider “(KLAKKLA)4 (KLAKKLAKLAKKLAKLAKKLAKLAKKLA)”, for which, in series [1], the “Minimum Inhibitory Concentration, E. coli” value was 9.0 µM. Besides, in series [2], the “Minimum Inhibitory Concentration, P. aeruginosa” value is 9.0 µM. Further, in series [3], the “Minimum Inhibitory Concentration, S. aureus” value was 9.0 µM. Further, the “Sublethal Concentration, 3T3” value in series [4] stood at 13 µM. In addition, the “Sublethal Concentration, 3T12” value in series [5] is 52 µM.

Take `COC(=O)[C@H](C)NC(=O)[C@H](CC(C)C)NC(=O)[C@H](CCCCN)NC(=O)[C@H](CCCCN)NC(=O)[C@H](C)NC(=O)[C@H](CC(C)C)NC(=O)[C@H](CCCCN)NC(=O)[C@H](C)NC(=O)[C@H](CC(C)C)NC(=O)[C@H](CCCCN)NC(=O)[C@H](CCCCN)NC(=O)[C@H](C)NC(=O)[C@H](CC(C)C)NC(=O)[C@@H](N)CCCCN` [Peptide 14-mer, (KLAKKLA)2 -OCH3] (H-KLAKKLAKLAKKLA-OMe): the “Concentration at which mammalian cell permeation to an exterior fluorescent dye begins, relative to concentrations that effectively inhibited bacterial growth” value in series [6] is reported as “about 50 times”.

As to (KLAKLAK), the “Minimum Inhibitory Concentration, E. coli” value in series [1] was over 95 µM. Further, the “Minimum Inhibitory Concentration, P. aeruginosa” value in series [2] is over 95 µM. The “Minimum Inhibitory Concentration, S. aureus” value in series [3] is over 95 µM.

Regarding (KLGKKLG)3 (KLGKKLGKLGKKLGKLGKKLG), in series [1], the “Minimum Inhibitory Concentration, E. coli” value was determined as 3.4 µM. Also, the “Minimum Inhibitory Concentration, P. aeruginosa” value in series [2] came to 3.4 µM. Further, the “Minimum Inhibitory Concentration, S. aureus” value in series [3] is 3.4 µM. In addition, the “Sublethal Concentration, 3T3” value in series [4] came to 565 µM. Further, the “Sublethal Concentration, 3T12” value in series [5] amounted to 565 µM.

`COC(=O)[C@H](C)NC(=O)[C@H](CC(C)C)NC(=O)[C@H](CCCCN)NC(=O)[C@H](CCCCN)NC(=O)[C@H](C)NC(=O)[C@H](CC(C)C)NC(=O)[C@H](CCCCN)NC(=O)[C@H](C)NC(=O)[C@H](CC(C)C)NC(=O)[C@H](CCCCN)NC(=O)[C@H](CCCCN)NC(=O)[C@H](C)NC(=O)[C@H](CC(C)C)NC(=O)[C@@H](N)CCCCN` [(KLAKKLA)2] (H-KLAKKLAKLAKKLA-OMe): the “Sublethal Concentration, 3T3” value in series [4] stood at 394 µM. For the same molecule, the “Sublethal Concentration, 3T12” value in series [5] amounted to 788 µM.

With (KALKALK)3, the “Minimum Inhibitory Concentration, E. coli” value in series [1] came out at 3.9 µM. The “Minimum Inhibitory Concentration, P. aeruginosa” value in series [2] was determined as 3.9 µM. Further, the “Minimum Inhibitory Concentration, S. aureus” value in series [3] worked out at 7.8 µM.

Turning to (KLAKKLA), the “Minimum Inhibitory Concentration, E. coli” value in series [1] is over 100 µM. For the same molecule, the “Minimum Inhibitory Concentration, P. aeruginosa” value in series [2] is over 100 µM. Further, the “Minimum Inhibitory Concentration, S. aureus” value in series [3] was over 100 µM. In series [4], the “Sublethal Concentration, 3T3” value is on record as “N.L”. In addition, the “Sublethal Concentration, 3T12” value in series [5] was “N.L”.

For the molecule `CC(C)C[C@H](NC(=O)[C@H](CCCCN)NC(=O)[C@H](C)NC(=O)[C@H](CC(C)C)NC(=O)[C@H](CCCCN)NC(=O)[C@H](CCCCN)NC(=O)[C@H](C)NC(=O)[C@H](CC(C)C)NC(=O)[C@H](CCCCN)NC(=O)[C@H](C)NC(=O)[C@H](CC(C)C)NC(=O)[C@H](CCCCN)NC(=O)[C@H](CCCCN)NC(=O)[C@H](C)NC(=O)[C@H](CC(C)C)NC(=O)[C@H](CCCCN)NC(=O)[C@H](C)NC(=O)[C@H](CC(C)C)NC(=O)[C@@H](N)CCCCN)C(=O)N[C@@H](C)C(=O)N[C@@H](CCCCN)C(N)=O` [(KLAKLAK)3], in series [1], the “Minimum Inhibitory Concentration, E. coli” value was 3.7 µM. Moreover, the “Minimum Inhibitory Concentration, P. aeruginosa” value in series [2] is 3.7 µM. Also, in series [3], the “Minimum Inhibitory Concentration, S. aureus” value worked out at 3.7 µM.

“(KLAKLAK)4 (KLAKLAKKLAKLAKKLAKLAKKLAKLAK)”: the “Minimum Inhibitory Concentration, E. coli” value in series [1] came to 9.4 µM. For the same molecule, the “Minimum Inhibitory Concentration, P. aeruginosa” value in series [2] turned out to be 9.4 µM. The “Minimum Inhibitory Concentration, S. aureus” value in series [3] amounted to 9.4 µM.

Take “cecropin B (KWKVFKKIEKMGRNIRNGIVKAGPAIAVLGEAKAL; UniProt P01508 27-61, looked up) [naturally occurring lytic peptide used for comparison, reference compound]”: in series [1], the “Minimum Inhibitory Concentration, E. coli” value turned out to be 0.20 µM. Moreover, the “Minimum Inhibitory Concentration, P. aeruginosa” value in series [2] was found to be 0.20 µM. Moreover, the “Minimum Inhibitory Concentration, S. aureus” value in series [3] is 1.7 µM.

The record behind these values is patent US5789542A, “Amphipathic peptides” (Board of Supervisors of Louisiana State University and …, priority 1997, dated 1998).
